Laboratory results as given in PubChem BioAssay AID248 (DTP/NCI, 2004).
“And” between values parts separate entries of the source, which are not always exact repeats. Identical values can stand only once. Toxic doses and inconclusive results are not listed.

Test system: L1210 leukemia ip in BDF1 mice, survival T/C
Assay: NCI In Vivo Anticancer Drug Screen. Data for tumor model L1210 Leukemia (intraperitoneal) in B6D2F1 (BDF1) mice
Settings: endpoint: mean survival time, higher = longer survival
Outline: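 Each compound was tested against a transplantable tumor grown in mice. The endpoint was survival, with treated animals benchmarked against vehicle controls as a simple ratio.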

[1] = dose: 25.0 mg/kg/injection, schedule: Q04DX002 (ip), vehicle: saline with Tween-80
[2] = dose: 100.0 mg/kg/injection, schedule: Q01DX009 (ip), vehicle: Klucel (hydroxypropylcellulose) (HPC)
[3] = dose: 200.0 mg/kg/injection, schedule: Q01DX009 (ip), vehicle: Klucel (hydroxypropylcellulose) (HPC)
[4] = dose: 400.0 mg/kg/injection, schedule: Q01DX009 (ip), vehicle: Klucel (hydroxypropylcellulose) (HPC)
[5] = dose: 100.0 mg/kg/injection, schedule: Q01DX001 (ip), vehicle: saline with Tween-80
[6] = dose: 200.0 mg/kg/injection, schedule: Q01DX001 (ip), vehicle: saline with Tween-80
[7] = dose: 400.0 mg/kg/injection, schedule: Q01DX001 (ip), vehicle: saline with Tween-80
[8] = dose: 100.0 mg/kg/injection, schedule: Q01DX009 (ip), vehicle: saline with Tween-80
[9] = dose: 100.0 mg/kg/injection, schedule: Q04DX003 (ip), vehicle: saline with Tween-80
[10] = dose: 200.0 mg/kg/injection, schedule: Q01DX009 (ip), vehicle: saline with Tween-80
[11] = dose: 200.0 mg/kg/injection, schedule: Q04DX003 (ip), vehicle: saline with Tween-80
[12] = dose: 400.0 mg/kg/injection, schedule: Q01DX009 (ip), vehicle: saline with Tween-80
[13] = dose: 400.0 mg/kg/injection, schedule: Q04DX003 (ip), vehicle: saline with Tween-80
[14] = dose: 12.5 mg/kg/injection, schedule: Q01DX009 (ip), vehicle: water
[15] = dose: 25.0 mg/kg/injection, schedule: Q01DX009 (ip), vehicle: water
[16] = dose: 25.0 mg/kg/injection, schedule: Q04DX003 (ip), vehicle: water
[17] = dose: 50.0 mg/kg/injection, schedule: Q01DX009 (ip), vehicle: water
[18] = dose: 50.0 mg/kg/injection, schedule: Q04DX003 (ip), vehicle: water
[19] = dose: 100.0 mg/kg/injection, schedule: Q04DX003 (ip), vehicle: water
[20] = dose: 100.0 mg/kg/injection, schedule: Q04DX002 (ip), vehicle: saline with Tween-80
[21] = dose: 200.0 mg/kg/injection, schedule: Q04DX002 (ip), vehicle: saline with Tween-80
[22] = dose: 400.0 mg/kg/injection, schedule: Q04DX002 (ip), vehicle: saline with Tween-80
[23] = dose: 50.0 mg/kg/injection, schedule: Q04DX003 (ip), vehicle: Klucel (hydroxypropylcellulose) (HPC)
[24] = dose: 100.0 mg/kg/injection, schedule: Q04DX003 (ip), vehicle: Klucel (hydroxypropylcellulose) (HPC)
[25] = dose: 100.0 mg/kg/injection, schedule: Q01DX001 (ip), vehicle: saline
[26] = dose: 200.0 mg/kg/injection, schedule: Q01DX001 (ip), vehicle: saline
[27] = dose: 200.0 mg/kg/injection, schedule: Q04DX003 (ip), vehicle: Klucel (hydroxypropylcellulose) (HPC)
[28] = dose: 400.0 mg/kg/injection, schedule: Q04DX003 (ip), vehicle: Klucel (hydroxypropylcellulose) (HPC)

COc1cc(N(CCCl)CCCl)c(OC)cc1C=Nc1ccc(-c2nc(Cc3ccccc3)sc2C)cc1
T/C (dose: 4.0 mg/kg/injection, schedule: Q01DX009 (ip), vehicle: other): 117 % of control
T/C (dose: 6.0 mg/kg/injection, schedule: Q01DX009 (ip), vehicle: other): 123 % of control
T/C (dose: 9.0 mg/kg/injection, schedule: Q01DX009 (ip), vehicle: other): 120 % of control
T/C (dose: 12.5 mg/kg/injection, schedule: Q01DX001 (ip), vehicle: carboxymethylcellulose (CMC)): 105 % of control
T/C (dose: 25.0 mg/kg/injection, schedule: Q01DX001 (ip), vehicle: carboxymethylcellulose (CMC)): 105 % of control
T/C (dose: 44.0 mg/kg/injection, schedule: Q01DX001 (ip), vehicle: carboxymethylcellulose (CMC)): 110 % of control
T/C (dose: 44.0 mg/kg/injection, schedule: Q01DX009 (ip), vehicle: other): 160 % of control
T/C (dose: 66.0 mg/kg/injection, schedule: Q01DX009 (ip), vehicle: carboxymethylcellulose (CMC)): 102 % of control
T/C (dose: 100.0 mg/kg/injection, schedule: Q01DX009 (ip), vehicle: carboxymethylcellulose (CMC)): 88 % of control
T/C (dose: 150.0 mg/kg/injection, schedule: Q01DX001 (ip), vehicle: carboxymethylcellulose (CMC)): 153 % of control

CC(C)(C)C1CSC(c2ccccc2)SC1 (stereo not given)
T/C (dose: 12.5 mg/kg/injection, schedule: Q04DX002 (ip), vehicle: Klucel (hydroxypropylcellulose) (HPC)): 98 % of control
T/C (dose: 25.0 mg/kg/injection, schedule: Q04DX002 (ip), vehicle: Klucel (hydroxypropylcellulose) (HPC)): 92 % of control
T/C (dose: 50.0 mg/kg/injection, schedule: Q04DX002 (ip), vehicle: Klucel (hydroxypropylcellulose) (HPC)): 98 % of control

Nc1cnc([S][Sn]([c]2ccccc2)([c]2ccccc2)[c]2ccccc2)s1
T/C (dose: 6.25 mg/kg/injection, schedule: Q04DX002 (ip), vehicle: saline with Tween-80): 101 % of control
T/C (dose: 12.5 mg/kg/injection, schedule: Q04DX002 (ip), vehicle: saline with Tween-80): 96 % of control
T/C [1]: 104 % of control

COc1ccc(C)cc1NC(=O)Nc1ccccc1F
T/C [2]: 97 % of control and 91 % of control
T/C [3]: 89 % of control
T/C [4]: 92 % of control and 101 % of control

CCOC(=O)c1nc[nH]c1N=[N+]=[N-]
T/C (dose: 100.0 mg/kg/injection, schedule: Q01DX001 (ip), vehicle: other): 106 % of control
T/C (dose: 200.0 mg/kg/injection, schedule: Q01DX001 (ip), vehicle: other): 97 % of control
T/C (dose: 400.0 mg/kg/injection, schedule: Q01DX001 (ip), vehicle: other): 95 % of control

CC/C(C)=N/C(=O)NN
T/C [5]: 103 % of control

CCCCCCCCCCCCCCCCC(CCCCCCCCCCCCCCCC)C1CCCCC1
T/C [5]: 94 % of control
T/C [6]: 94 % of control
T/C [7]: 90 % of control

COC(=O)CCC(C)C1CCC2(C)C3=C(C(=O)CC12C)C1(C)CCC(O)C(C)(C)C1=C(O)C3 (stereo not given)
T/C (dose: 100.0 mg/kg/injection, schedule: Q04DX003 (ip), vehicle: saline): 91 % of control
T/C (dose: 200.0 mg/kg/injection, schedule: Q04DX003 (ip), vehicle: saline): 93 % of control
T/C (dose: 400.0 mg/kg/injection, schedule: Q04DX003 (ip), vehicle: saline): 91 % of control

CCCCOC(=O)C1CCCC1=O (stereo not given)
T/C [8]: 94 % of control
T/C [9]: 97 % of control
T/C [10]: 103 % of control
T/C [11]: 94 % of control
T/C [12]: 95 % of control
T/C [13]: 97 % of control

C[n+]1cc2c3ccccc3c(N)cc2c2ccccc21
T/C (dose: 6.25 mg/kg/injection, schedule: Q01DX009 (ip), vehicle: water): 114 % of control
T/C [14]: 118 % of control
T/C [15]: 117 % of control
T/C [16]: 118 % of control
T/C [17]: 90 % of control
T/C [18]: 98 % of control
T/C [19]: 93 % of control and 107 % of control

CC(C)(C)CC(O)Cc1ccccc1 (stereo not given)
T/C [20]: 93 % of control
T/C [21]: 93 % of control

COc1ccc(COC(=O)Nc2cccc(Cl)c2C)cc1
T/C [5]: 90 % of control
T/C [8]: 97 % of control and 98 % of control
T/C [20]: 95 % of control and 104 % of control
T/C [9]: 93 % of control
T/C [6]: 92 % of control
T/C [10]: 97 % of control and 89 % of control
T/C [21]: 101 % of control and 87 % of control
T/C [11]: 93 % of control
T/C [7]: 87 % of control
T/C [12]: 93 % of control
T/C [22]: 96 % of control and 101 % of control
T/C [13]: 96 % of control

S=P1(c2ccccc2)Nc2ccccc2N1c1ccccc1 (stereo not given)
T/C (dose: 100.0 mg/kg/injection, schedule: Q04DX002 (ip), vehicle: DMSO): 114 % of control
T/C (dose: 200.0 mg/kg/injection, schedule: Q04DX002 (ip), vehicle: DMSO): 86 % of control

Cc1cc2nc(N)sc2cc1C
T/C (dose: 25.0 mg/kg/injection, schedule: Q01DX009 (ip), vehicle: Klucel (hydroxypropylcellulose) (HPC)): 101 % of control
T/C [23]: 100 % of control
T/C [24]: 89 % of control

CCc1occ(C(=O)N2Cc3cc4ccccc4nc3C2)c1C1SCCS1
T/C [25]: 89 % of control
T/C [26]: 92 % of control

Cc1ccc(NC(=O)N2CCN(c3ccccc3)CC2)c([N+](=O)[O-])c1
T/C [24]: 96 % of control
T/C [27]: 102 % of control
T/C [28]: 91 % of control

O=[N+]([O-])c1ccc2nc(=S)[nH]n2c1
T/C (dose: 100.0 mg/kg/injection, schedule: Q01DX001 (ip), vehicle: acetone): 97 % of control
T/C (dose: 200.0 mg/kg/injection, schedule: Q01DX001 (ip), vehicle: acetone): 93 % of control
T/C (dose: 400.0 mg/kg/injection, schedule: Q01DX001 (ip), vehicle: acetone): 98 % of control

Cc1c(N)nc(=S)[nH]c1C(=O)O
T/C (dose: 50.0 mg/kg/injection, schedule: Q01DX001 (ip), vehicle: Klucel (hydroxypropylcellulose) (HPC)): 95 % of control
T/C [23]: 91 % of control
T/C (dose: 100.0 mg/kg/injection, schedule: Q01DX001 (ip), vehicle: Klucel (hydroxypropylcellulose) (HPC)): 97 % of control
T/C [24]: 105 % of control
T/C (dose: 200.0 mg/kg/injection, schedule: Q01DX001 (ip), vehicle: Klucel (hydroxypropylcellulose) (HPC)): 106 % of control
T/C [27]: 94 % of control

O=c1cc(NCc2ccc(Cl)cc2)[nH]c(=O)[nH]1
T/C [5]: 108 % of control
T/C [6]: 95 % of control
T/C [7]: 98 % of control

O=C(O)c1cccc2c1-c1ccccc1C(Br)C2Br (stereo not given)
T/C [21]: 101 % of control

C[Si](C)(CCCOCC1CO1)O[Si](C)(C)CCCOCC1CO1 (stereo not given)
T/C [8]: 97 % of control
T/C [9]: 95 % of control
T/C [10]: 97 % of control
T/C [11]: 89 % of control
T/C [12]: 92 % of control
T/C [13]: 87 % of control

CC(C)=CCC/C(C)=C\C(N)=O
T/C [25]: 106 % of control
T/C [26]: 92 % of control
T/C (dose: 400.0 mg/kg/injection, schedule: Q01DX001 (ip), vehicle: saline): 111 % of control

CCN(/N=C/c1ccc([N+](=O)[O-])o1)C(N)=O
T/C [1]: 100 % of control
T/C (dose: 50.0 mg/kg/injection, schedule: Q04DX002 (ip), vehicle: saline with Tween-80): 103 % of control

Nc1nc([Se])c2cc[nH]c2n1
T/C [14]: 107 % of control
T/C [15]: 102 % of control
T/C [16]: 97 % of control
T/C [17]: 104 % of control
T/C [18]: 102 % of control
T/C [19]: 94 % of control and 95 % of control

COc1ccc(Cl)cc1NC(=O)/C=C/c1ccccc1
T/C [5]: 95 % of control
T/C [8]: 89 % of control
T/C [20]: 98 % of control and 90 % of control
T/C [6]: 92 % of control
T/C [10]: 95 % of control and 89 % of control
T/C [21]: 96 % of control and 91 % of control
T/C [12]: 92 % of control
T/C [22]: 94 % of control and 86 % of control

CN(C)C=Nc1ccccc1
T/C [2]: 109 % of control
T/C [24]: 111 % of control
T/C [3]: 101 % of control
T/C [27]: 97 % of control
T/C [4]: 100 % of control
T/C [28]: 93 % of control
